According to ChEMBL document CHEMBL4011640, “Identification and Structure-Activity Relationships of Novel Compounds that Potentiate the Activities of Antibiotics in Escherichia coli” (J Med Chem, 2017):
Converted amounts (≈) assume the structure as drawn. The source made the active and inactive calls. The calls are words filed in the database; no cut-off is given here.

What was measured:
[1] = system: Escherichia coli; test: Antimicrobial activity against AcrAB-TolC knocked out Escherichia coli GD102 harboring […] pores in the outer membrane after 24 hrs by two-fold broth microdilution assay; format: functional; settings: GD102, 24 h
[2] = system: Escherichia coli; test: Antimicrobial activity against Escherichia coli harboring AcrAB-TolC deletion mutant after 24 hrs by two-fold broth microdilution assay; format: functional
[3] = system: Escherichia coli; test: Inhibition of AcrA in Escherichia coli assessed as increase in HT dye uptake at 25 uM measured up to 600 secs by fluorescence method
[4] = system: Escherichia coli; test: Antimicrobial activity against Escherichia coli BW25113 after 24 hrs by two-fold broth microdilution assay; format: functional; settings: BW25113, 24 h
[5] = system: Escherichia coli; test: Antimicrobial activity against Escherichia coli harboring pores in outer membrane after 24 hrs by two-fold broth microdilution assay; format: functional
[6] = system: Escherichia coli; test: Binding affinity to Escherichia coli AG100 His-tagged AcrA at 25 uM by SPR assay
[7] = system: Escherichia coli BW25113; test: Inhibition of AcrA efflux pump in Escherichia coli BW25113 assessed as compound concentration required for potentiation of novobiocin-induced antibacterial activity by 4 fold by checkerboard assay
[8] = system: Escherichia coli; test: Binding affinity to Escherichia coli AG100 His-tagged AcrA at 50 uM by SPR assay
[9] = Ratio of MIC for wild type Escherichia coli BW25113 to MIC for Escherichia coli harboring […] pores in the outer membrane; format: functional, cell membranes
[10] = system: Escherichia coli; test: Ratio of MIC for wild type Escherichia coli harboring AcrAB-TolC deletion mutant to MIC for AcrAB-TolC knocked out Escherichia coli GD102 harboring […] pores in the outer membrane; format: functional
[11] = system: Escherichia coli; test: Ratio of MIC for wild type Escherichia coli harboring […] pores in the outer membrane to MIC for wild type Escherichia coli harboring […] pores in the outer membrane in presence of erythromycin; format: functional
[12] = system: Escherichia coli; test: Ratio of MIC for wild type Escherichia coli harboring […] pores in the outer membrane to MIC for AcrAB-TolC knocked out Escherichia coli GD102 harboring […] pores in the outer membrane; format: functional
[13] = system: Escherichia coli; test: Ratio of MIC for wild type Escherichia coli harboring […] pores in the outer membrane to MIC for wild type Escherichia coli harboring […] pores in the outer membrane in presence of novobiocin; format: functional
[14] = system: Escherichia coli; test: Inhibition of AcrA in Escherichia coli assessed as HT dye uptake at 25 uM measured up to 600 secs by fluorescence method relative to control
[15] = system: Escherichia coli; test: Inhibition of AcrA in Escherichia coli assessed as increase in HT dye uptake at 25 uM measured up to 600 secs by fluorescence method relative to control
[16] = system: Escherichia coli; test: Disruption of transmembrane potential in Escherichia coli live cells harboring pores in outer membrane at 10 uM by DiSC3(5) probe-based fluorescence assay; format: functional

O=C(Nc1ccc(C2=NCCN2)cc1)[C@H]1CC[C@H](C(=O)Nc2ccc(C3=NCCN3)cc2)CC1
MIC [1]: 6.25 µM (≈ 2.87 µg/mL)
MIC [2]: 12.5 µM (≈ 5.73 µg/mL)
Activity [3]: Active
MIC [4]: 50 µM (≈ 22.9 µg/mL)
MIC [5]: 25 µM (≈ 11.5 µg/mL)
Activity [6]: inactive
Activity [7]: > 400 µM
Activity [8]: inactive
Ratio [9]: 2
Ratio [10]: 2

O=C(Nc1ccc(C2=NCCN2)cc1)c1cccc(C(=O)Nc2ccc(C3=NCCN3)cc2)c1
Activity [7]: 200 µM

O=C(Nc1ccc(C2=NCCN2)cc1)c1ccc2cc(Br)ccc2c1
MIC [1]: 12.5 µM (≈ 4.93 µg/mL)
Ratio [11]: 16
Ratio [12]: 16
MIC [2]: 25 µM (≈ 9.86 µg/mL)
Activity [3]: Active
Ratio [13]: 16
MIC [4]: > 400 µM
MIC [5]: 200 µM (≈ 78.9 µg/mL)
Activity [6]: Active
Activity [7]: 25 µM
fold change (FC) [14]: 16
Ratio [9]: 4
fold change (FC) [15]: 1.6

O=C(Nc1ccc(-c2ncc[nH]2)cc1)c1ccc(C(=O)Nc2ccc(-c3ncc[nH]3)cc2)c(Cl)c1
Activity [7]: > 400 µM

O=C(Nc1ccc(C2=NCCN2)cc1)c1ccc(C(=O)Nc2ccc(C3=NCCN3)cc2)c(F)c1
Activity [7]: 100 µM

O=C(Nc1ccc(S(=O)(=O)O)cc1)c1ccc(C(=O)Nc2ccc(S(=O)(=O)O)cc2)cc1
Activity [7]: > 100 µM

O=C(Nc1ccc(C2=NCCN2)cc1)c1ccc(C(=O)Nc2ccc(C3=NCCN3)cc2)c(Cl)c1
MIC [1]: 12.5 µM (≈ 6.09 µg/mL)
Ratio [11]: 8
Ratio [12]: 8
MIC [2]: 25 µM (≈ 12.2 µg/mL)
Activity [3]: Active
Ratio [13]: 16
MIC [4]: > 200 µM
MIC [5]: 100 µM (≈ 48.7 µg/mL)
Activity [6]: Active
Activity [7]: 25 µM
fold change (FC) [14]: 3.2
Activity [16]: inactive
Activity [8]: Active
Ratio [9]: 4

O=C(Nc1ccc(C2=NCCN2)cc1)c1ccc2c(c1)CN(Cc1ccccc1)C2=O
Activity [7]: > 200 µM

O=C(NCc1ccccc1)c1ccc(C(=O)Nc2ccc(C3=NCCN3)cc2)cc1
Activity [7]: > 200 µM

O=C(CCc1ccccc1)Nc1ccc(C2=NCCN2)cc1
Activity [7]: > 100 µM

NCc1ccc(NC(=O)c2ccc(C(=O)Nc3ccc(CN)cc3)cc2)cc1
Activity [7]: 50 µM

O=C(/C=C/c1ccccc1Br)Nc1ccc(C2=NCCN2)cc1
MIC [1]: 100 µM (≈ 37 µg/mL)
Ratio [11]: 32
Ratio [12]: 8
MIC [2]: 200 µM (≈ 74.1 µg/mL)
Activity [3]: Active
Ratio [13]: 32
MIC [4]: > 400 µM
MIC [5]: > 400 µM
Activity [6]: Active
Activity [7]: 50 µM
fold change (FC) [14]: 11.6
Ratio [9]: 1

O=C(Nc1ccc(C2=NCCN2)cc1)c1ccc(C(=O)Nc2ccc(C3=NCCN3)cc2)c([N+](=O)[O-])c1
Activity [7]: 25 µM

O=C(Cc1ccc(Cl)cc1)Nc1ccc(C2=NCCN2)cc1
Activity [7]: > 100 µM

N#Cc1ccc(NC(=O)c2ccc(C(=O)Nc3ccc(C#N)cc3)c(Cl)c2)cc1
Activity [7]: > 400 µM

O=C(Nc1ccc(C2=NCCN2)cc1)c1ccc(C(=O)Nc2ccc(C3=NCCN3)cc2)cc1
Activity [7]: 50 µM

O=C(Nc1cccc(C2=NCCN2)c1)c1ccc(C(=O)Nc2cccc(C3=NCCN3)c2)cc1
MIC [1]: 25 µM (≈ 11.3 µg/mL)
Ratio [11]: 4
Ratio [12]: 4
MIC [2]: 50 µM (≈ 22.6 µg/mL)
Activity [3]: Active
Ratio [13]: 4
MIC [4]: 200 µM (≈ 90.5 µg/mL)
MIC [5]: 100 µM (≈ 45.3 µg/mL)
Activity [6]: Active
Activity [7]: 50 µM
fold change (FC) [14]: 1.7
Ratio [9]: 2

Nc1ccc(C2=NCCN2C(=O)c2ccc(C(=O)N3CCN=C3c3ccc(N)cc3)c(Cl)c2)cc1
Activity [7]: 50 µM

O=C(/C=C/c1ccccc1)Nc1ccc(C2=NCCN2)cc1
Activity [7]: 200 µM
